Assay results taken from paper PMC11521183 (Emerging Infectious Diseases, 2024).

Test system: reference seasonal A(H3N2) viruses A/Louisiana/50/2017 and A/Louisiana/49/2017
Test: microbe, parasite or virus in culture
Type: cell-based, influenza A virus
Settings: read-out: Mean EC50 + SD

With `O=C1c2c(O)c(=O)ccn2N([C@@H]2c3ccccc3SCc3c2ccc(F)c3F)[C@@H]2COCCN12` [baloxavir, baloxavir acid] the EC50 was 14.1 nM.
